Test results: patent publication US7649012B2, “Compounds, pharmaceutical compositions containing same, and methods of use for same” (FASgen, Inc., priority 2002, dated 2010)
Converted amounts (≈) assume the structure as drawn. Like-named read-outs stand apart in the source and are kept apart here.

Assays:
[1] = Weight loss screen in Balb/C mice; assay type: in vivo; conditions: for change in vivo at 60 mg/kg: ip, 60 mg/kg intraperitoneally; for Deaths in weight loss screen: 60 mg/kg
Description: Balb/C mice (Jackson Labs) are utilized for the initial weight loss screening. Animals are housed in temperature and 12 hour day/night cycle rooms and fed mouse chow and water ad lib. Three mice are utilized for each compound tested with vehicle controls in triplicate per experiment. For the experiments, mice are housed separately for each compound tested three mice to a cage. […] Mice are observed and weighed daily; average weights and standard errors are computed with Excel (Microsoft). The experiment continues until treated animals reach their pretreatment weights. […]

[2] = system: MCF-7 human breast cancer cells; experiment: [14C]acetate incorporation into total lipids; assay type: cell-based; conditions: for IC50: Homo sapiens, MCF7, [14C]acetate incorporation into lipids; for 14C(IC50): [14C]acetate incorporation into lipids
Description: This assay measures the incorporation of [^14C]acetate into total lipids and is a measure of fatty acid synthesis pathway activity in vitro. It is utilized to measure inhibition of fatty acid synthesis in vitro.
MCF-7 human breast cancer cells cultured as above, are plated at 5×10^4 cells per well in 24-well plates. […] DMSO is added to triplicate wells for a vehicle control. C75 is run at 5 and 10 μg/ml in triplicate as positive controls. After 4 hours of incubation, 0.25 μCi of [^14C]acetate (10 μl volume) is added to each well.
After 2 hours of additional incubation, medium is aspirated from the wells and 800 μl of chloroform:methanol (2:1) and 700 μl of 4 mM MgCl2 is added to each well. Contents of each well are transferred to 1.5 Eppendorf tubes, and spun at full-speed for 2 minutes in a high-speed Eppendorf Microcentrifuge 5415D. After removal of the aqueous (upper) layer, an additional 700 μl of chloroform:methanol (2:1) and 500 μl of 4 mM MgCl2 are added to each tube and then centrifuged for 1 minutes as above. The aqueous layer is removed with a Pasteur pipette and discarded. An additional 400 μl of chloroform:methanol (2:1) and 200 μl of 4 mM MgCl2 are added to each tube, then centrifuged and aqueous layer is discarded. The lower (organic) phase is transferred into a scintillation vial and dried at 40° C. under N2 gas. Once dried, 3 ml of scintillant (APB #NBC5104) is added and vials are counted for ^14C. The Beckman Scintillation counter calculates the average cpm values for triplicates.
The IC50 for the compounds is defined as the concentration of drug leading to a 50% reduction in [^14C]acetate incorporation into lipids compared to controls. […] The average cpm values are computed by the Beckman scintillation counter (Model LS6500) for each compound concentration. Computation of linear regression, best-fit line, r^2, and 95% confidence intervals are calculated using Prism Version 3.0 (Graph Pad Software).

[3] = system: MCF-7 human breast cancer cells; experiment: Crystal violet cell growth assay; assay type: cell-based; conditions: MCF7, MCF-7, 72 hours, read-out: Cr. Violet(IC50)
Description: The crystal violet assay measure cell growth but not cytotoxicity. This assay employs crystal violet staining of fixed cells in 96-well plates with subsequent solubilization and measurement of OD490 on a spectrophotometer. The OD490 corresponds to cell growth per unit time measured. Cells are treated with the compounds of interest or vehicle controls and IC50 for each compound is computed.
To measure the cytotoxicity of specific compounds against cancer cells, 5×10^4 MCF-7 human breast cancer cells, obtained from the American Type Culture Collection are plated per well in 24 well plates in DMEM medium with 10% fetal bovine serum, penicillin, and streptomycin. Following overnight culture at 37° C. and 5% CO2, the compounds to be tested, dissolved in DMSO, are added to the wells in 1 μl volume at the following concentrations: 50, 40, 30, 20, and 10 μg/ml in triplicate. Additional concentrations are tested if required. 1 μl of DMSO is added to triplicate wells are the vehicle control. C75 is run at 10, and 5 μg/ml in triplicate as positive controls.
After 72 hours of incubation, cells are stained with 0.5 ml of Crystal Violet stain (0.5% in 25% methanol) in each well. After 10 minutes, wells are rinsed, air dried, and then solubilized with 0.5 ml 10% sodium dodecylsulfate with shaking for 2 hours.

[4] = target: T1, purified human FAS (Homo sapiens, UniProt P49327); experiment: Measurement of FAS enzymatic activity (NADPH oxidation), IC50; assay type: biochemical
T1 construct: Human FAS was purified from cultured ZR-75-1 human breast cancer cells; endogenous in cells; host or cells: ZR-75-1 human breast cancer cells (ATCC); endogenous enzyme purified by PEG precipitation and Mono Q anion exchange
Description: Human FAS was purified from cultured ZR-75-1 human breast cancer cells obtained from the American Type Culture Collection. The procedure, adapted from Linn et al., 1981, and Kuhajda et al., 1994, utilizes hypotonic lysis, successive polyethyleneglycol (PEG) precipitations, and anion exchange chromatography. […] The lysate is centrifuged in JA-20 rotor (Beckman) at 20,000 rpm for 30 minutes at 4° C. and the supernatant is brought to 42 ml with lysis buffer. A solution of 50% PEG 8000 in lysis buffer is added slowly to the supernatant to a final concentration of 7.5%. After rocking for 60 minutes at 4° C., the solution is centrifuged in JA-20 rotor (Beckman) at 15,000 rpm for 30 minutes at 4° C. […] After the rocking and centrifugation is repeated as above, the pellet is resuspended overnight at 4° C. in 10 ml of Buffer A (20 mM K2HPO4, pH 7.4). After 0.45 μM filtration, the protein solution is applied to a Mono Q 5/5 anion exchange column (Pharmacia). The column is washed for 15 minutes with buffer A at 1 ml/minute, and bound material is eluted with a linear 60-ml gradient over 60 minutes to 1 M KCl. […] FAS protein concentration is determined using the Coomassie Plus Protein Assay Reagent (Pierce) according to manufacturer's specifications using BSA as a standard. This procedure results in substantially pure preparations of FAS (>95%) as judged by Coomassie-stained gels. FAS activity is measured by monitoring the malonyl-CoA dependent oxidation of NADPH spectrophotometrically at OD340 in 96-well plates (Dils et al and […] et al, 1975). […] For each experiment, cerulenin (Sigma) is run as a positive control along with DMSO controls, inhibitors, and blanks (no FAS enzyme) all in duplicate. The assay is performed on a Molecular Devices SpectraMax Plus Spectrophotometer. The plate containing FAS, buffers, inhibitors, and controls are placed in the spectrophotometer heated to 37° C. Using the kinetic protocol, the wells are blanked on duplicate wells containing 100 μl of 100 mM K2HPO4, pH 6.5 and the plate is read at OD340 at 10 sec intervals for 5 minutes to measure any malonyl-CoA independent oxidation of NADPH. The plate is removed from the spectrophotometer and malonyl-CoA (67.4 μM, final concentration per well) and […] (61.8 μM, final concentration per well) are added to each well except to the blanks. The plate is read again as above with the kinetic protocol to measure the malonyl-CoA dependent NADPH oxidation. The difference between the Δ OD340 for the malonyl-CoA dependent and non-malonyl-CoA dependent NADPH oxidation is the specific FAS activity. Because of the purity of the FAS preparation, non-malonyl-CoA dependent NADPH oxidation is negligible. […] Graphs of Δ OD340 versus time are plotted by the SOFTmax PRO software (Molecular Devices) for each compound concentration.

[5] = Mus musculus, 48 h, read-out: Weight Loss
[6] = Mus musculus, 48 h, day2, read-out: Weight Loss
[7] = Mus musculus, 24 h, day1, read-out: Weight Loss
[8] = Mus musculus, 24 h, read-out: Weight Loss

T1 sequence (P49327 whole entry): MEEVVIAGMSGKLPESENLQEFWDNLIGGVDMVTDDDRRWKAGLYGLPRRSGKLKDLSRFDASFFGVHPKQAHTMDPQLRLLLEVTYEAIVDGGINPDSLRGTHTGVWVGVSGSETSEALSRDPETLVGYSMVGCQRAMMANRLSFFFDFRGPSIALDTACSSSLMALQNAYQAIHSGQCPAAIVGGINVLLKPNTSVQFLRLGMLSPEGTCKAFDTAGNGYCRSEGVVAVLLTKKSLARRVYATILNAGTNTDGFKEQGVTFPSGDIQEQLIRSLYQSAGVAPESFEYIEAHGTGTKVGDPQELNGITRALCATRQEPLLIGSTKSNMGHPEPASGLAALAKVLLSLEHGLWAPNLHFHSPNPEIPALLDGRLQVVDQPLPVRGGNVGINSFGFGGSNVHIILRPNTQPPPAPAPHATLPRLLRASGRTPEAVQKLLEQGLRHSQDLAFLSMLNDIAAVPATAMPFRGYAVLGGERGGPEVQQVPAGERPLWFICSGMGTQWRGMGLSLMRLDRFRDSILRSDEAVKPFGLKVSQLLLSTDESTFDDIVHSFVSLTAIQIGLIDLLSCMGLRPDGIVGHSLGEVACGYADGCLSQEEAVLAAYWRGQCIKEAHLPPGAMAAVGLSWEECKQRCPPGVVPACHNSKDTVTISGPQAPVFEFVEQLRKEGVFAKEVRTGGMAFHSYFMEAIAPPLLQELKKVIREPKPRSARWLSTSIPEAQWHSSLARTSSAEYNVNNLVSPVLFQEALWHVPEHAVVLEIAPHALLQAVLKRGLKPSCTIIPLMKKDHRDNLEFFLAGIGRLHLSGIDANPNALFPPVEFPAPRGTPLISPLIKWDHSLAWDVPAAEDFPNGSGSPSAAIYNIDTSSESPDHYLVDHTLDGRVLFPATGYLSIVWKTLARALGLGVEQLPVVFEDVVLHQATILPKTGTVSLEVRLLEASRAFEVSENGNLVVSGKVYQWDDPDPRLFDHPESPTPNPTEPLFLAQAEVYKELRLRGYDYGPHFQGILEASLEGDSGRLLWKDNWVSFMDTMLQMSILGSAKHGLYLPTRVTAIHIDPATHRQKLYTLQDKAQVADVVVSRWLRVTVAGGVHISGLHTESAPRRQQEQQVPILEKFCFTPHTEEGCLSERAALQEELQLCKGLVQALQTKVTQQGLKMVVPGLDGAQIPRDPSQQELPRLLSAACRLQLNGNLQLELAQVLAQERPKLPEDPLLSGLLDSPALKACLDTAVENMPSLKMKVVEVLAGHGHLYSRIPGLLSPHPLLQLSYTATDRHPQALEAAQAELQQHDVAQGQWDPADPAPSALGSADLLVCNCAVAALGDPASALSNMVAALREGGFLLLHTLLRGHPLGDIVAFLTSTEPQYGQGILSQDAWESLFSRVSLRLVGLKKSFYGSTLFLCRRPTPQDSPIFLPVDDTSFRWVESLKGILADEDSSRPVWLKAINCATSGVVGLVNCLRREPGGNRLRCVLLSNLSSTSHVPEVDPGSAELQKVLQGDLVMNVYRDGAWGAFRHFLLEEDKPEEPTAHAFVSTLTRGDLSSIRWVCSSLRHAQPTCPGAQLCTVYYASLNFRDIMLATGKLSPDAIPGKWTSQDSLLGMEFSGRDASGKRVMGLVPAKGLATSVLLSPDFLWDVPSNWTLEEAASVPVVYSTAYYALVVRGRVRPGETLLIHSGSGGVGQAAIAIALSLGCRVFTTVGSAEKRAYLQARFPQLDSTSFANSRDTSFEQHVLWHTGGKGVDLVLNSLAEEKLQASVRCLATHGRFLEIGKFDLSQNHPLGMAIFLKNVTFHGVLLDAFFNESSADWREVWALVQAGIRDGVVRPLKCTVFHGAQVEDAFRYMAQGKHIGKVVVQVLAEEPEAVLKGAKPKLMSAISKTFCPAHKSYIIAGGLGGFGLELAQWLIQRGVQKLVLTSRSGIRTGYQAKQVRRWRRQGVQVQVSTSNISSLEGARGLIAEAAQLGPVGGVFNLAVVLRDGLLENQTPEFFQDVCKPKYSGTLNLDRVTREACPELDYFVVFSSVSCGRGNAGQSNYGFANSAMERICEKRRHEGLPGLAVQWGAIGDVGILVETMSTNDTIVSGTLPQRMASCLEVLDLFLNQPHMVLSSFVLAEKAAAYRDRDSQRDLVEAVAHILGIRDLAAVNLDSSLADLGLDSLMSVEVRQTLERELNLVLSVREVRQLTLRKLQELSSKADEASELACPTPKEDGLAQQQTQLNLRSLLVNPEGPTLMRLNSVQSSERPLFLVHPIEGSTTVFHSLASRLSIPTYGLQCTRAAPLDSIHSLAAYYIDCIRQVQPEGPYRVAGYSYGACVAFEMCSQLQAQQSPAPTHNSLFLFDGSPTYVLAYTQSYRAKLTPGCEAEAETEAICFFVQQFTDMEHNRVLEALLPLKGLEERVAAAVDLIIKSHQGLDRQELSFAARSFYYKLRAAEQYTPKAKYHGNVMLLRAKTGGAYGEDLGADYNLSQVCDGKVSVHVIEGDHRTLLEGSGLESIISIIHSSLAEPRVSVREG

| FAS(IC50) [4] | Structure (SMILES) | change in vivo at 60 mg/kg [1, 6] [%] | IC50 [2] [µg/mL] | IC50 [3] [µg/mL] | also measured |
| --- | --- | --- | --- | --- | --- |
| – | C=CCOC(=O)OC1=CC(=O)S[C@]1(C)CCCCCCCC (racemic) | 6.2 | 14.2 (≈ 43.5 µM) | 35.8 (≈ 110 µM) | change in vivo at 30 mg/kg [1, 5]: 1%; IC50 [4]: 16.8 µM |
| Neg | CCCCCC[C@@]1(C)SC(=O)C=C1OCC(=O)NCC(=O)O (racemic) | 3.5 | 6.6 (≈ 20 µM) | > 50 | – |
| Neg | CCCCCCCCC1(C)SC(=O)C=C1OCC(=O)NNC(C)=O (stereo not shown) | – | 11.5 (≈ 32.3 µM) | 28.7 (≈ 80.5 µM) | change in vivo at 60 mg/kg ([1]; Mus musculus, 96 h, day4, read-out: Weight Loss): 5.9% |
| Neg | CCCCCCCCC1(C)SC(=O)C=C1OC (stereo not shown) | – | 11 (≈ 42.9 µM) | 21.4 (≈ 83.5 µM) | change in vivo at 60 mg/kg [1, 7]: 6.1% |
| – | CCCCCCCCC1(C)SC(=O)C=C1O (stereo not shown) | – | 12.6 ± 4.4 (≈ 52 µM) | 28.7 (≈ 118 µM) | change in vivo at 30 mg/kg ([1]; Mus musculus, 72 h, read-out: Weight Loss): 4.8%; IC50 [4]: 18.6 µM |
| Neg | CC1(Cc2ccccc2)SC(=O)C=C1O (stereo not shown) | 1.6 | – | > 50 | 14C(IC50) [2]: Neg |
| – | CCCCCCCCC1(C)SC(=O)C(C)=C1O (stereo not shown) | – | 16.5 ± 5.7 (≈ 64.3 µM) | 29.4 ± 4.3 (≈ 115 µM) | change in vivo at 30 mg/kg [1, 8]: 1%; change in vivo at 60 mg/kg [1, 7]: 0%; IC50 [4]: 192 µM |
| Neg | CCCCCCCCC1(C)SC(=O)C=C1OCC(=O)NNCc1ccc(Cl)cc1 (stereo not shown) | 1.4 | 10.5 ± 2.6 (≈ 23.9 µM) | < 5 | – |

| Structure (SMILES) | FAS(IC50) [4] | change in vivo at 60 mg/kg [1, 6] [%] | IC50 [2] [µg/mL] | IC50 [3] [µg/mL] | also measured |
| --- | --- | --- | --- | --- | --- |
| CCCCCCC1(C)SC(=O)C=C1OC (stereo not shown) | Neg | – | 14 ± 2.8 (≈ 61.3 µM) | 26.3 ± 4.3 (≈ 115 µM) | Deaths in weight loss screen ([1]; day1, three mice): 3 of 3 dead; change in vivo at 30 mg/kg ([1]; Mus musculus, 24 h, 30 mg/kg, day1, read-out: Weight Loss): 8.7%; change in vivo at 10 mg/kg ([1]; Mus musculus, 72 h, 10 mg/kg (multiple doses), day3): 1% |
| C=CCNC(=O)COC1=CC(=O)S[C@]1(C)CCCCCCCCCC (racemic) | Neg | – | – | 10.4 (≈ 28.3 µM) | change in vivo at 15 mg/kg [1, 8]: 0%; change in vivo at 30 mg/kg [1, 5]: 1.8%; 14C(IC50) [2]: Neg |
| CCCCCCC1(C)SC(=O)C=C1O (stereo not shown) | Neg | – | 16.5 ± 3.8 (≈ 77 µM) | > 50 | Deaths in weight loss screen ([1]; day4, three mice): 60 mg/kg: 3 of 3 dead(day4) |
